Assay results from patent publication US20220062165A1, “COMPOSITIONS AND METHODS FOR INTRANASAL DELIVERY OF PREGNENOLONE” (M et P Pharma AG, priority 2018, published 2022).
“Also recorded” adds a separate entry of the source.

Assays:
Parameters in all cases: species or system rat
[1] = test system: extracellular acetylcholine levels in the amygdala; assay: In vivo microdialysis after intranasal administration in both nostrils, amygdala; conditions: 11.2 mg/mL, 5 μl each in both nostrils; n=4
Method: (§1) Acetylcholine concentration values are presented as % of baseline with six baseline samples taken as 100 (mean+SE). Pregnenolone was administrated intranasally at a volume of 5 μl each in both nostrils, at the 0 minute time point. Time is presented in the x-axis and mean and standard error of acetylcholine concentration (expressed as % of baseline) are presented in the y-axis. Filled black circles represent the vehicle, unfilled white circles represent the 5.6 mg/mL pregnenolone dose and the triangle represents the 11.2 mg/mL pregnenolone dose.
(§2) The semipermeable membrane allows molecules smaller than 6 KDa to pass through. The length of the active membrane is 2 mm for the frontal cortex and amygdala, and 4 mm for the hippocampus.
(§3) Microdialysis. Prior the microdialysis process, the animals were anesthetized with Urethane intraperitoneal injection. (1.25 gram/kilogram, Sigma Aldrich). To allow fluid supply (perfusion liquid) (Ringer's solution 0.2 milliliter every 20 minutes) without physical contact with the animal, a catheter was placed into the intraperitoneal cavity. The animal was placed in an acrylic box (45×25×22 centimeter), and the body temperature was monitored and held stable at 36.5±0.5 degrees Celsius by atemperature controller (CMA/150) and a heating pad. […]

[2] = test system: extracellular acetylcholine levels in the hippocampus; assay: In vivo microdialysis after intranasal administration in both nostrils, hippocampus; conditions: 5 μl each in both nostrils
Method: as §1, §2, §3

[3] = test system: extracellular acetylcholine levels in the frontal cortex; assay: In vivo microdialysis after intranasal administration in both nostrils, frontal cortex; conditions: 5 μl each in both nostrils
Method: as §1, §2, §3

[4] = test system: extracellular acetylcholine levels in the amygdala; assay: In vivo microdialysis after lateralized intranasal administration (one nostril), amygdala; conditions: 5 μl of 11.2 mg/mL gel in one nostril, vehicle in the other; anesthetized rats; n=10
Source text: Subjects. A total number of 10 adult male Wistar rats 3-4 months of age and weighting between 400 and 500 grams, at the time of surgery, were obtained from the local animal facility (Tierversuchsanlage, University of Dusseldorf, Germany). They were grouped 4 per cage (Makrolon cage, type IV, 60.0×20.0×38.0 centimeter), and separated into individual cases after the surgery. They were housed under a reversed light-dark cycle (light off from 7 after midnight (AM) to 7 post meridiem (PM)), with free access to food and water. […] After two weeks of adaptation, animals underwent microdialysis as described below. All experiments were carried out in accordance with the European Communities Council Directive (86/609/EEC) on animal welfare, and approved by the German Animal Protection Law Authorities—LANUV Nordrhein-Westfalen.
Surgery. Rats underwent implantation of microdialysis probes into specific brain areas. They were anesthetized with a mixture of ketamine hydrochloride (90.0 milligram/kilogram (mg/kg); Pharmacia & Upjohn) and xylazine hydrochloride (8.0 mg/kg; Bayer) and placed in a stereotaxic frame (David Kopf Instruments). […]
Microdialysis. […] The animal was placed in an acrylic box (45×25×22 centimeter), and the body temperature was monitored and held stable at 36.5±0.5 degrees Celsius by atemperature controller (CMA/150) and a heating pad. […]

## CC(=O)[C@H]1CC[C@H]2[C@@H]3CC=C4C[C@@H](O)CC[C@]4(C)[C@H]3CC[C@]12C [pregnenolone]
[1]
  effect on acetylcholine (ACh) release in the amygdala: induced an increase in acetylcholine release in the amygdala
[2]; 5.6 mg/mL, n=7
  effect on acetylcholine release in the hippocampus: had no effect
[2]; 11.2 mg/mL, n=5
  effect on acetylcholine release in the hippocampus: had an effect on acetylcholine release in the hippocampus, but this effect was not significant
[3]; 5.6 mg/mL, n=5
  effect on acetylcholine release in the frontal cortex: Neither pregnenolone (PREG) at dosage 5.6 mg/mL or 11.2 mg/mL had an effect
[3]; 11.2 mg/mL, n=6
  effect on acetylcholine release in the frontal cortex: Neither pregnenolone (PREG) at dosage 5.6 mg/mL or 11.2 mg/mL had an effect
[4]
  extracellular acetylcholine in the amygdala contralateral to the treated nostril: not in the contralateral amygdala
  extracellular acetylcholine in the amygdala ipsilateral to the treated nostril: Higher increase in the ipsilateral amygdala of extracellular level of acetylcholine; also recorded: increases acetylcholine in the amygdala ipsilateral to this nostril
